In BigSolDB 2.1:

NC(N)=S
solubility (mole fraction)
Settings	283.15 K	288.15 K	293.15 K	298.15 K	303.15 K	308.15 K	313.15 K	318.15 K	323.15 K
in 2-butanone	0.0135	0.0154	0.0171	0.0189	0.0203	0.0219	0.0234	0.0247	0.0264
in acetone	0.0348	0.0364	0.0375	0.0389	0.0401	0.042	0.0438	0.0465	0.0482
in acetonitrile	0.00865	0.00982	0.0107	0.012	0.0134	0.0146	0.016	0.018	0.0196
in ethanol	0.0172	0.02	0.0227	0.0254	0.0285	0.0315	0.0353	0.0394	0.0442
in ethyl acetate	0.00497	0.00519	0.00548	0.0058	0.0062	0.00664	0.00718	0.00769	0.00814
in isobutanol	0.00827	0.0101	0.0116	0.0132	0.0152	0.0171	0.0189	0.0224	0.0251
in isopropanol	0.0133	0.0151	0.0168	0.019	0.0225	0.0246	0.0273	0.0308	0.0344
in methanol	0.0423	0.0471	0.0521	0.0596	0.0644	0.07	0.0761	0.0848	0.0944
in methyl acetate	0.00556	0.00628	0.00673	0.00747	0.00814	0.00885	0.00951	0.0102	0.0109
in n-butanol	0.0104	0.0121	0.0133	0.015	0.0173	0.0195	0.0212	0.0238	0.0274
in n-propanol	0.0128	0.0143	0.0157	0.0177	0.0209	0.0231	0.0255	0.029	0.0326
in water	0.0211	0.0265	0.0325	0.0396	0.0493	0.0592	0.0701	0.0835	0.102
